Assay results taken from US10307418B2, “Azole pharmaceutical formulations for parenteral administration and methods for preparing and using the same as treatment of diseases sensitive to azole compounds” (Platform Brightworks Two, Ltd., priority 2010, dated 2019).
Values after ≈ are worked out from the molar mass of the structure shown. Where two headings read alike, the source gives them in different places.

System: Aspergillus fumigatus (ATCC strain 90906)
Assay: Mold susceptibility test, MIC (CLSI M38A)
Format: cell-based
Experimental: Two hyaline molds were tested with a standard read out at 48 hrs:
Tested drug range: 75 μg/mL to 0.07 μg/mL
To further determine the antifungal activity of the compounds in the new formulation systems we investigated the efficacy of the various agents against additional strains of mucor and Aspergillus (9/-16-9/20/2010) (The Rhizomucor was a clinical isolate from a patient isolate) and the Aspergillus fumigatus (ATCC strain 90906) used was a repeat from the previously described experiment. Again, the susceptibility tests were set-up using the standardized test method (CLSI M38A). The used drugs were provided in the described H3 final use-formulation that has been previously described. All drugs were diluted in RPMI-Mops medium (YeastOne, Sensititer Lot 151416SA, expiration date January 2011).
As before two different molds were tested with a standard read out at 48 hr: • Drug dilution range 75 μg/mL to 0.07 μg/mL. • Aspergillus fumigatus (ATCC strain 90906) Zygomycete (Clinical Lab isolate, MDACC) […]

## CCC(C)n1ncn(-c2ccc(N3CCN(c4ccc(OCC5COC(Cn6cncn6)(c6ccc(Cl)cc6Cl)O5)cc4)CC3)cc2)c1=O (stereo not shown) [ITZA, itraconazole]
Aspergillus fumigatus, ATCC90906, 48 h, tested range 75 μg/mL to 0.07 μg/mL, read out at 48 hrs, first experiment, read-out: MIC
  MIC: 1.2 µg/mL (≈ 1.7 µM)
Extended mold testing (repeat), H3 final use-formulation, range 75 μg/mL to 0.07 μg/mL, 48 hr
  MIC: 1.2 µg/mL (≈ 1.7 µM)
Extended mold testing (repeat), H3 final use-formulation, range 75 μg/mL to 0.07 μg/mL, 48 hr, listed as ITZA*
  MIC: 0.3 µg/mL (≈ 0.425 µM)
Tested range 75 μg/mL to 0.07 μg/mL, read out at 48 hrs, first experiment
  MIC: 0.6 µg/mL (≈ 0.85 µM)
